We go through three compounds from ChEMBL document CHEMBL5113415, “Synthesis of 10,10'-bis(trifluoromethyl) marinopyrrole A derivatives and evaluation of their antiviral activities in vitro” (Eur J Med Chem, 2022).

In the first series the test system is Enterovirus A71. In words: Antiviral activity against EV71 infected in human RD cells incubated for 3 days by CellTiter 96 luminescent cell viability assay. In kind it is functional, organism-based. As to conditions: Enterovirus A, 71, RD, 72 h.
What is called IC50 is the point on the concentration scale where inhibition reaches its midpoint. The compound `O=C(c1ccc(C(F)(F)F)cc1O)c1[nH]c(Cl)c(Cl)c1-n1c(C(=O)c2ccc(C(F)(F)F)cc2O)cc(Cl)c1Sc1nc2ccccc2o1` showed an IC50 of 300 nM.
Take `O=C(c1ccc(C(F)(F)F)cc1O)c1[nH]c(Cl)c(Cl)c1-n1c(C(=O)c2ccc(C(F)(F)F)cc2O)cc(Cl)c1Sc1cccs1`: the midpoint of inhibition, the IC50, lay at 20 nM.
On the same count and under the same terms, the figure for `O=C(c1ccc(C(F)(F)F)cc1O)c1[nH]c(Cl)c(Cl)c1-n1c(C(=O)c2ccc(C(F)(F)F)cc2O)cc(Cl)c1Sc1ncccn1` is 90 nM.

The subject of a further series is Zika virus. Briefly: Antiviral activity against ZIKV-SMGC-1 infected in […] incubated for 7 days by CellTiter 96 luminescent cell viability assay. In kind it is functional, organism-based. As to conditions: SMGC-1, BHK, 168 h.
In the case of `O=C(c1ccc(C(F)(F)F)cc1O)c1[nH]c(Cl)c(Cl)c1-n1c(C(=O)c2ccc(C(F)(F)F)cc2O)cc(Cl)c1Sc1nc2ccccc2o1`, the 50% inhibitory concentration (IC50) worked out at 360 nM.

Tested on in a further series: not listed separately
In words: Cytotoxicity against human RD cells infected with CA6 incubated for 3 days by CellTiter 96 luminescent cell viability assay. In kind it is toxicity, cell-based. As to conditions: time 3 day.
The CC50 is the concentration that lowers cell viability or growth by half. For `O=C(c1ccc(C(F)(F)F)cc1O)c1[nH]c(Cl)c(Cl)c1-n1c(C(=O)c2ccc(C(F)(F)F)cc2O)cc(Cl)c1Sc1nc2ccccc2o1`, half-maximal cytotoxicity (CC50 at 72 h) was put at 1560 nM.
On to `O=C(c1ccc(C(F)(F)F)cc1O)c1[nH]c(Cl)c(Cl)c1-n1c(C(=O)c2ccc(C(F)(F)F)cc2O)cc(Cl)c1Sc1cccs1`, for which the midpoint of cytotoxicity, the CC50 at 72 h, lay at 110 nM.
On the same count and under the same terms, the figure for `O=C(c1ccc(C(F)(F)F)cc1O)c1[nH]c(Cl)c(Cl)c1-n1c(C(=O)c2ccc(C(F)(F)F)cc2O)cc(Cl)c1Sc1ncccn1` is 530 nM.

Tested on in the next series: not listed separately
In words: Selectivity index, ratio of CC50 for […] to IC50 for YFV-17D infected in […]. In kind it is toxicity, cell-based. The settings on record: read-out: Ratio CC50/IC50.
For the compound `O=C(c1ccc(C(F)(F)F)cc1O)c1[nH]c(Cl)c(Cl)c1-n1c(C(=O)c2ccc(C(F)(F)F)cc2O)cc(Cl)c1Sc1cccs1`, the selectivity ratio amounted to 4.6.

Tested on in a further series: not listed separately
Briefly: Cytotoxicity against human RD cells infected with EV71 incubated for 3 days by CellTiter 96 luminescent cell viability assay. The class given is toxicity, cell-based. The settings on record: time 3 day.
Regarding `O=C(c1ccc(C(F)(F)F)cc1O)c1[nH]c(Cl)c(Cl)c1-n1c(C(=O)c2ccc(C(F)(F)F)cc2O)cc(Cl)c1Sc1nc2ccccc2o1`, half-maximal cytotoxicity (CC50 at 72 h) was put at 920 nM.
Same read-out and setting: with `O=C(c1ccc(C(F)(F)F)cc1O)c1[nH]c(Cl)c(Cl)c1-n1c(C(=O)c2ccc(C(F)(F)F)cc2O)cc(Cl)c1Sc1cccs1` the figure was 80 nM; with `O=C(c1ccc(C(F)(F)F)cc1O)c1[nH]c(Cl)c(Cl)c1-n1c(C(=O)c2ccc(C(F)(F)F)cc2O)cc(Cl)c1Sc1ncccn1`, 320 nM.

Tested on in the next series: not listed separately
In words: Cytotoxicity against […] infected with JEV-SA14 incubated for 7 days by CellTiter 96 luminescent cell viability assay. The class given is toxicity, cell-based. The settings on record: time 7 day.
In turn, `O=C(c1ccc(C(F)(F)F)cc1O)c1[nH]c(Cl)c(Cl)c1-n1c(C(=O)c2ccc(C(F)(F)F)cc2O)cc(Cl)c1Sc1nc2ccccc2o1` had a CC50 at 168 h of 1800 nM.
On to `O=C(c1ccc(C(F)(F)F)cc1O)c1[nH]c(Cl)c(Cl)c1-n1c(C(=O)c2ccc(C(F)(F)F)cc2O)cc(Cl)c1Sc1cccs1`, for which the CC50 at 168 h is 230 nM. Compared with the last compound, the CC50 at 168 h is about 7.8-fold lower.

Tested on in another series: not listed separately
Briefly: Cytotoxicity against […] infected with DENV-NGC-1 incubated for 7 days by CellTiter 96 luminescent cell viability assay. The class given is toxicity, cell-based. As to conditions: time 7 day.
In turn, `O=C(c1ccc(C(F)(F)F)cc1O)c1[nH]c(Cl)c(Cl)c1-n1c(C(=O)c2ccc(C(F)(F)F)cc2O)cc(Cl)c1Sc1nc2ccccc2o1` gave a half-maximal cytotoxic concentration (CC50) at 168 h of 1800 nM. This counts as single-digit micromolar.

Tested on in a further series: not listed separately
In words: Selectivity index, ratio of CC50 for human RD cells to IC50 for CA16 infected in human RD cells. The class given is toxicity, cell-based. As to conditions: read-out: Ratio CC50/IC50.
With `O=C(c1ccc(C(F)(F)F)cc1O)c1[nH]c(Cl)c(Cl)c1-n1c(C(=O)c2ccc(C(F)(F)F)cc2O)cc(Cl)c1Sc1nc2ccccc2o1`, the selectivity ratio came out at 12.
Regarding `O=C(c1ccc(C(F)(F)F)cc1O)c1[nH]c(Cl)c(Cl)c1-n1c(C(=O)c2ccc(C(F)(F)F)cc2O)cc(Cl)c1Sc1cccs1`, the selectivity ratio was determined as 12.2.
As for `O=C(c1ccc(C(F)(F)F)cc1O)c1[nH]c(Cl)c(Cl)c1-n1c(C(=O)c2ccc(C(F)(F)F)cc2O)cc(Cl)c1Sc1ncccn1`, the selectivity ratio was 17.8.

Tested on in a further series: not listed separately
Briefly: Cytotoxicity against […] infected with YFV-17D incubated for 7 days by CellTiter 96 luminescent cell viability assay. The class given is toxicity, cell-based. The settings on record: time 7 day.
Compound `O=C(c1ccc(C(F)(F)F)cc1O)c1[nH]c(Cl)c(Cl)c1-n1c(C(=O)c2ccc(C(F)(F)F)cc2O)cc(Cl)c1Sc1cccs1` returned a CC50 at 168 h of 230 nM.

Tested on in the next series: not listed separately
Briefly: Selectivity index, ratio of CC50 for […] to IC50 for ZIKV-SMGC-1 infected in […]. In kind it is toxicity, cell-based. The settings on record: read-out: Ratio CC50/IC50.
Regarding `O=C(c1ccc(C(F)(F)F)cc1O)c1[nH]c(Cl)c(Cl)c1-n1c(C(=O)c2ccc(C(F)(F)F)cc2O)cc(Cl)c1Sc1nc2ccccc2o1`, the selectivity ratio is 5.

Tested on in another series: not listed separately
In words: Selectivity index, ratio of CC50 for human RD cells to IC50 for CA6 infected in human RD cells. The class given is toxicity, cell-based. The settings on record: read-out: Ratio CC50/IC50.
As for `O=C(c1ccc(C(F)(F)F)cc1O)c1[nH]c(Cl)c(Cl)c1-n1c(C(=O)c2ccc(C(F)(F)F)cc2O)cc(Cl)c1Sc1nc2ccccc2o1`, the selectivity ratio worked out at 3.18.
`O=C(c1ccc(C(F)(F)F)cc1O)c1[nH]c(Cl)c(Cl)c1-n1c(C(=O)c2ccc(C(F)(F)F)cc2O)cc(Cl)c1Sc1cccs1`: the selectivity ratio was determined as 3.67.
On the same count and under the same terms, the figure for `O=C(c1ccc(C(F)(F)F)cc1O)c1[nH]c(Cl)c(Cl)c1-n1c(C(=O)c2ccc(C(F)(F)F)cc2O)cc(Cl)c1Sc1ncccn1` is 1.84.

In the next series the test system is Yellow fever virus. Briefly: Antiviral activity against YFV-17D infected in […] incubated for 7 days by CellTiter 96 luminescent cell viability assay. In kind it is functional, organism-based. As to conditions: 168 h.
`O=C(c1ccc(C(F)(F)F)cc1O)c1[nH]c(Cl)c(Cl)c1-n1c(C(=O)c2ccc(C(F)(F)F)cc2O)cc(Cl)c1Sc1cccs1` came in with an IC50 of 50 nM.

The test system of a further series is Japanese encephalitis virus. In words: Antiviral activity against JEV-SA14 infected in […] incubated for 7 days by CellTiter 96 luminescent cell viability assay. The class given is functional, organism-based. As to conditions: 168 h.
Take `O=C(c1ccc(C(F)(F)F)cc1O)c1[nH]c(Cl)c(Cl)c1-n1c(C(=O)c2ccc(C(F)(F)F)cc2O)cc(Cl)c1Sc1nc2ccccc2o1`: half-maximal inhibition (IC50) was put at 1250 nM.
The same measure, in the same setting: the figure for `O=C(c1ccc(C(F)(F)F)cc1O)c1[nH]c(Cl)c(Cl)c1-n1c(C(=O)c2ccc(C(F)(F)F)cc2O)cc(Cl)c1Sc1cccs1` is 50 nM.

Tested on in the next series: not listed separately
Briefly: Selectivity index, ratio of CC50 for human RD cells to IC50 for EV71 infected in human RD cells. In kind it is toxicity, cell-based. The settings on record: read-out: Ratio CC50/IC50.
Turning to `O=C(c1ccc(C(F)(F)F)cc1O)c1[nH]c(Cl)c(Cl)c1-n1c(C(=O)c2ccc(C(F)(F)F)cc2O)cc(Cl)c1Sc1nc2ccccc2o1`, the selectivity ratio was 3.07.
As for `O=C(c1ccc(C(F)(F)F)cc1O)c1[nH]c(Cl)c(Cl)c1-n1c(C(=O)c2ccc(C(F)(F)F)cc2O)cc(Cl)c1Sc1cccs1`, the selectivity ratio amounted to 4.
Same read-out and setting: with `O=C(c1ccc(C(F)(F)F)cc1O)c1[nH]c(Cl)c(Cl)c1-n1c(C(=O)c2ccc(C(F)(F)F)cc2O)cc(Cl)c1Sc1ncccn1` the figure was 3.56.

Tested on in the next series: not listed separately
Briefly: Selectivity index, ratio of CC50 for […] to IC50 for JEV-SA14 infected in […]. In kind it is toxicity, cell-based. As to conditions: read-out: Ratio CC50/IC50.
Turning to `O=C(c1ccc(C(F)(F)F)cc1O)c1[nH]c(Cl)c(Cl)c1-n1c(C(=O)c2ccc(C(F)(F)F)cc2O)cc(Cl)c1Sc1nc2ccccc2o1`, the selectivity ratio was 1.44.
On to `O=C(c1ccc(C(F)(F)F)cc1O)c1[nH]c(Cl)c(Cl)c1-n1c(C(=O)c2ccc(C(F)(F)F)cc2O)cc(Cl)c1Sc1cccs1`, for which the selectivity ratio was found to be 4.59.

Tested on in another series: not listed separately
In words: Cytotoxicity against human RD cells infected with CA16 incubated for 3 days by CellTiter 96 luminescent cell viability assay. The class given is toxicity, cell-based. As to conditions: time 3 day.
`O=C(c1ccc(C(F)(F)F)cc1O)c1[nH]c(Cl)c(Cl)c1-n1c(C(=O)c2ccc(C(F)(F)F)cc2O)cc(Cl)c1Sc1nc2ccccc2o1` came in with a half-maximal cytotoxic concentration (CC50) at 72 h of 1560 nM.
On the same count and under the same terms, the figure for `O=C(c1ccc(C(F)(F)F)cc1O)c1[nH]c(Cl)c(Cl)c1-n1c(C(=O)c2ccc(C(F)(F)F)cc2O)cc(Cl)c1Sc1cccs1` is 110 nM.
`O=C(c1ccc(C(F)(F)F)cc1O)c1[nH]c(Cl)c(Cl)c1-n1c(C(=O)c2ccc(C(F)(F)F)cc2O)cc(Cl)c1Sc1ncccn1`: the CC50 at 72 h was determined as 530 nM. This CC50 at 72 h lies about 4.8-fold higher than the previous one.

Tested on in the next series: not listed separately
In words: Selectivity index, ratio of CC50 for […] to IC50 for DENV-NGC infected in […]. The class given is toxicity, cell-based. The settings on record: read-out: Ratio CC50/IC50.
`O=C(c1ccc(C(F)(F)F)cc1O)c1[nH]c(Cl)c(Cl)c1-n1c(C(=O)c2ccc(C(F)(F)F)cc2O)cc(Cl)c1Sc1nc2ccccc2o1`: the selectivity ratio was 5.

For the next series, the system named is Coxsackievirus A16. In words: Antiviral activity against CA16 infected in human RD cells incubated for 3 days by CellTiter 96 luminescent cell viability assay. In kind it is functional, organism-based. The settings on record: Enterovirus A, 72 h.
`O=C(c1ccc(C(F)(F)F)cc1O)c1[nH]c(Cl)c(Cl)c1-n1c(C(=O)c2ccc(C(F)(F)F)cc2O)cc(Cl)c1Sc1nc2ccccc2o1` had an IC50 of 130 nM. That is a sub-micromolar value.
`O=C(c1ccc(C(F)(F)F)cc1O)c1[nH]c(Cl)c(Cl)c1-n1c(C(=O)c2ccc(C(F)(F)F)cc2O)cc(Cl)c1Sc1cccs1` returned a concentration for half-maximal inhibition (IC50) of 10 nM.
`O=C(c1ccc(C(F)(F)F)cc1O)c1[nH]c(Cl)c(Cl)c1-n1c(C(=O)c2ccc(C(F)(F)F)cc2O)cc(Cl)c1Sc1ncccn1`: 30 nM corresponded to half-maximal inhibition (IC50).

The next series relates to Dengue virus. In words: Antiviral activity against DENV-NGC-1 infected in […] incubated for 7 days by CellTiter 96 luminescent cell viability assay. In kind it is functional, organism-based. The settings on record: NGC-1, BHK, 168 h.
In turn, `O=C(c1ccc(C(F)(F)F)cc1O)c1[nH]c(Cl)c(Cl)c1-n1c(C(=O)c2ccc(C(F)(F)F)cc2O)cc(Cl)c1Sc1nc2ccccc2o1` displayed an IC50 of 360 nM.

The subject of a further series is Coxsackievirus. Briefly: Antiviral activity against CA6 infected in human RD cells incubated for 3 days by CellTiter 96 luminescent cell viability assay. In kind it is functional, organism-based. As to conditions: A6, RD, 72 h.
For `O=C(c1ccc(C(F)(F)F)cc1O)c1[nH]c(Cl)c(Cl)c1-n1c(C(=O)c2ccc(C(F)(F)F)cc2O)cc(Cl)c1Sc1nc2ccccc2o1`, the IC50 was 490 nM.
The compound `O=C(c1ccc(C(F)(F)F)cc1O)c1[nH]c(Cl)c(Cl)c1-n1c(C(=O)c2ccc(C(F)(F)F)cc2O)cc(Cl)c1Sc1cccs1` yielded an IC50 of 30 nM.
The same measure, in the same setting: the figure for `O=C(c1ccc(C(F)(F)F)cc1O)c1[nH]c(Cl)c(Cl)c1-n1c(C(=O)c2ccc(C(F)(F)F)cc2O)cc(Cl)c1Sc1ncccn1` is 290 nM.
